The text below walks through data of patent US20060122181A1, “Heteroaromatic pentacyclic compound and medicinal use thereof” (Japan Tobacco Inc., priority 2003, published 2006).

The target in data set [1] is T1, Recombinant human protein tyrosine phosphatase 1B (Homo sapiens, UniProt P18031).
T1 construct: purchased UBI
T1 sequence (P18031 1-435): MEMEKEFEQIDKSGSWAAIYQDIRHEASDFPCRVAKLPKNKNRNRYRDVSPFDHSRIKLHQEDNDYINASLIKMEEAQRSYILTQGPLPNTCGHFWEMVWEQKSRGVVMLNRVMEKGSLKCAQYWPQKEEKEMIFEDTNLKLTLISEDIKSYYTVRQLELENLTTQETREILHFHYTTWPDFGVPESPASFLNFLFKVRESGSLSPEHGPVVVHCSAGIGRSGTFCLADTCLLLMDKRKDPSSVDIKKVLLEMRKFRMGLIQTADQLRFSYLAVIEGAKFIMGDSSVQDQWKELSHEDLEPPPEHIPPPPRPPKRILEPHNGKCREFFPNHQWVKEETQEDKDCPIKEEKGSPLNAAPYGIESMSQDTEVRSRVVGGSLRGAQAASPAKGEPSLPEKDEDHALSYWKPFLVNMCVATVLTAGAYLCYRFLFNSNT
The experiment in a line: Protein tyrosine phosphatase 1B inhibitory activity (malachite green, phosphorylated insulin receptor peptide substrate). It is filed as biochemical. Conditions: recombinant human PTP1B, 60 min room temperature, absorbance 650 nm.

A further data set deals with male ob/ob mice. The experiment in a line: Hypoglycemic activity in ob/ob mice. The class given is in vivo. To be noted: fasting, relative to control group. Here is the method:
A 0.5% methyl cellulose suspension of the test compound was orally administered to 6- to 9-week-old male ob/ob mice grouped according to the glucose level. Only a 0.5% methyl cellulose solution was administered to a control group.
Blood was drawn under fasting condition, which condition was started simultaneously with the administration by means of removing the feed. The blood was drawn under anesthesia from the orbital vein 3 hours after the administration. The blood thus taken was centrifuged and the glucose level was measured from the obtained plasma by the hexokinase method (glucose measurement kit). For evaluation, the percentage (%) of decrease in the glucose level of the test compound-administered group relative to the control group is shown.

The subject of another data set is female ob/ob mice. As to the kind of experiment: Effect of concomitant use with glibenclamide on hypoglycemic activity. It is filed as in vivo. Conditions: glibenclamide 3 mg/kg oral alone, relative to control. The procedure:
To 10-week-old female ob/ob mice grouped according to glucose level were orally administered a 0.5% methyl cellulose suspension of the test compound {note: Example 4-2 (1 mg/kg)} (test compound-administered group), a 0.5% methyl cellulose suspension of glibenclamide (3 mg/kg) (glibenclamide-administered group), simultaneously both a 0.5% methyl cellulose suspension of the test compound and a 0.5% methyl cellulose suspension (glibenclamide 3 mg/kg) (test compound and glibenclamide concomitant use group), or a 0.5% methyl cellulose solution alone (control group).
Blood was drawn under fasting condition, which condition was started simultaneously with the administration by means of removing the feed. […] The blood thus taken was centrifuged and the glucose level was measured from the obtained plasma by the hexokinase method (glucose kit). For evaluation, the percentage (%) of decrease in the glucose level of each group other than the control group relative to the control group is shown.

The term melting point denotes the temperature of the solid-liquid transition. Usually IC50 stands for the midpoint of a concentration-inhibition curve. For `CCCC(CCC)c1ccc(N(C)Cc2ccc(-c3csc(N(C)Cc4ccc(C(=O)O)cc4)n3)cc2)cc1` [Example 1-19], the melting point lay in the range of 110 to 113 °C. Besides, the IC50 in data set [1] came to 0.1 µM. Further, in the data set with male ob/ob mice (dose 1 mg/kg oral), the “blood glucose decreasing rate (%) 3 hours later” value is listed as 35%.
Take `CCCC(CCC)c1ccc(N(C)Cc2ccc(-c3csc(CN(CC(=O)O)Cc4ccccc4)n3)cc2)cc1` [Example 1-25]: the melting point was 138 °C. For the same compound, the concentration for half-maximal inhibition (IC50) in data set [1] was 0.13 µM. Also, the “blood glucose decreasing rate (%) 3 hours later” value in the data set with male ob/ob mice (dose 1 mg/kg oral) is given as 25%.
With `CN(Cc1ccc(C2CCCCC2)cc1)c1ccc(-c2csc(CN(CC(=O)O)Cc3ccccc3)n2)cc1` [Example 3-29], the melting point was 148 to 150 °C. For the same compound, the IC50 in data set [1] amounted to 0.41 µM. The “blood glucose decreasing rate (%) 3 hours later” value in the data set with male ob/ob mice (dose 3 mg/kg oral) worked out at 41%.
Turning to `CCCC(CCC)c1ccc(OCc2ccc(-c3csc(COc4cncc(C(=O)O)c4)n3)cc2)cc1` [Example 1-48], the melting point lay in the range of 165 to 171 °C. Moreover, the half-maximal inhibitory concentration (IC50) in data set [1] came to 0.23 µM. Moreover, the “blood glucose decreasing rate (%) 3 hours later” value with male ob/ob mice (dose 1 mg/kg oral) worked out at 46%.
Consider `CCCC(CCC)c1ccc(OCc2ccc(-c3csc(N(C)Cc4ccc(C(=O)O)cc4)n3)cc2)cc1` [Example 1-39], for which the melting point was in the range of 156 to 158 °C. Besides, the IC50 in data set [1] turned out to be 0.19 µM. The “blood glucose decreasing rate (%) 3 hours later” value in the data set with male ob/ob mice (dose 1 mg/kg oral) worked out at 32%.
`CN(Cc1ccc(C2CCC(C)(C)CC2)cc1)c1ccc(-c2csc(CN(C)S(=O)(=O)c3ccc(C(=O)O)cc3)n2)cc1` [Example 3-98] had a melting point of 218 to 221 °C. Also, the IC50 in data set [1] came to 0.16 µM. Also, the “blood glucose decreasing rate (%) 3 hours later” value in the data set on male ob/ob mice (dose 3 mg/kg oral) came to 31%.
`CC(C)CCN(CC(=O)O)Cc1nc(-c2ccc(N(C)Cc3ccc([C@H]4CC[C@H](C)CC4)cc3)cc2)cs1` [Example 3-92]: the melting point is 166 to 167 °C. The IC50 in data set [1] is 0.18 µM. For the same compound, in the data set on male ob/ob mice (dose 1 mg/kg oral), the “blood glucose decreasing rate (%) 3 hours later” value stood at 26%.
As to `CC(C)Cc1ccc(CN(C)c2ccc(-c3csc(CN(CC(=O)O)C(=O)Cc4ccc(C(C)C)cc4)n3)cc2)cc1` [Example 3-58], the melting point was in the range of 124 to 126 °C. The IC50 in data set [1] came out at 0.39 µM. The “blood glucose decreasing rate (%) 3 hours later” value in the data set with male ob/ob mice (dose 1 mg/kg oral) was 23%.
On to `CCCC(CCC)c1ccc(OCc2ccc(-c3csc(CN4Cc5ccccc5CC4C(=O)O)n3)cc2)cc1` (centres unmarked) [Example 1-45], for which the melting point fell in the range of 117 to 126 °C. In data set [1], the IC50 is 0.066 µM. Moreover, the “blood glucose decreasing rate (%) 3 hours later” value in the data set on male ob/ob mice (dose 1 mg/kg oral) was found to be 32%.
Turning to `CN(Cc1ccc(C2CCCCC2)cc1)c1ccc(-c2csc(CN(C)S(=O)(=O)c3ccc(C(=O)O)cc3)n2)cc1` [Example 3-100], the melting point fell in the range of 193 to 196 °C. In addition, in data set [1], the IC50 was determined as 0.15 µM. Further, in the data set with male ob/ob mice (dose 3 mg/kg oral), the “blood glucose decreasing rate (%) 3 hours later” value was 20%.
`CCCC(CCC)c1ccc(COc2ccc(C)cc2-c2csc(CN(CC(=O)O)Cc3ccccc3)n2)cc1` [Example 3-9] had a melting point of 126 to 128 °C. In addition, in data set [1], the IC50 was 0.17 µM. Moreover, the “blood glucose decreasing rate (%) 3 hours later” value in the data set with male ob/ob mice (dose 1 mg/kg oral) is 18%.
On to `CCCC(CCC)c1ccc(CN(C)c2ccc(-c3csc(CN4Cc5ccccc5CC4C(=O)O)n3)cc2)cc1` (centres unmarked) [Example 3-73], for which the melting point fell in the range of 176 to 179 °C. The IC50 in data set [1] amounted to 0.2 µM. Moreover, the “blood glucose decreasing rate (%) 3 hours later” value in the data set with male ob/ob mice (dose 1 mg/kg oral) is listed as 14%.
The compound `CCCC(CCC)c1ccc(COc2ccc(-c3csc(CN(CC(=O)O)Cc4ccccc4)n3)cc2)cc1` [Example 3-10] returned a melting point of 145 to 148 °C. For the same compound, the IC50 in data set [1] came to 0.2 µM. For the same compound, the “blood glucose decreasing rate (%) 3 hours later” value with male ob/ob mice (dose 1 mg/kg oral) was 18%.
`CCCC(CCC)c1ccc(COc2ccc(C)cc2-c2csc(CN3Cc4ccccc4CC3C(=O)O)n2)cc1` (centres unmarked) [Example 3-25] came in with a melting point of 149 to 152 °C. Also, the IC50 in data set [1] is 0.14 µM. Besides, the “blood glucose decreasing rate (%) 3 hours later” value in the data set with male ob/ob mice (dose 1 mg/kg oral) is listed as 20%.
`CCC(CC)c1ccc(COc2ccc(-c3csc(CN(CC(=O)O)Cc4ccc(C(C)C)cc4)n3)cc2)cc1` [Example 3-15] had a melting point of 138 to 140 °C. Moreover, in data set [1], the IC50 came to 0.27 µM. Besides, the “blood glucose decreasing rate (%) 3 hours later” value with male ob/ob mice (dose 1 mg/kg oral) is reported as 25%.
The compound `CCCC(CCC)c1ccc(CN(C)c2ccc(-c3csc([C@@H]4Cc5ccccc5CN4CC(=O)[O-])n3)cc2)cc1.[Na+]` [Example 3-64] returned a melting point of 186 to 187 °C. For the same compound, the half-inhibitory concentration (IC50) in data set [1] was found to be 0.21 µM. Further, the “blood glucose decreasing rate (%) 3 hours later” value in the data set on male ob/ob mice (dose 1 mg/kg oral) is 13%.
For `COc1ccc(Cl)cc1C(=O)NCCc1ccc(S(=O)(=O)NC(=O)NC2CCCCC2)cc1` [Glibenclamide, glibenclamide, reference compound], in the data set on female ob/ob mice, the “blood glucose decreasing rate (%) 3 hours later” value came to 44% and the “blood glucose decreasing rate (%) 15 hours later” value was determined as 40%.
Consider `CN(Cc1ccc(C2CCCCC2)cc1)c1ccc(-c2csc(CNC(Cc3ccccc3)C(=O)O)n2)cc1` (centres unmarked) [Example 3-76], for which the melting point was 185 to 190 °C. Further, in data set [1], the IC50 was found to be 0.48 µM. In addition, the “blood glucose decreasing rate (%) 3 hours later” value with male ob/ob mice (dose 1 mg/kg oral) was found to be 33%.
`CN(Cc1ccc([C@H]2CC[C@H](C)CC2)cc1)c1ccc(-c2csc(CN(CC(=O)O)Cc3ccccc3)n2)cc1` [Example 3-32] registered a melting point of 157 to 159 °C. In data set [1], the IC50 came to 0.18 µM. For the same compound, the “blood glucose decreasing rate (%) 3 hours later” value with male ob/ob mice (dose 1 mg/kg oral) amounted to 14%.
In the case of `CN(Cc1ccc(C(=O)O)cc1)c1nc(-c2ccc(COc3ccc(C4CCCCC4)cc3)cc2)cs1` [Example 1-37], the melting point is 209 to 211 °C. Also, the IC50 in data set [1] was found to be 0.14 µM. The “blood glucose decreasing rate (%) 3 hours later” value with male ob/ob mice (dose 3 mg/kg oral) came out at 26%.
In turn, `CCCC(CCC)c1ccc(CN(C)c2ccc(-c3csc(CN(C)[C@@H](Cc4ccccc4)C(=O)O)n3)cc2)cc1` [Example 3-86] came in with a melting point of 143 °C. Also, the IC50 in data set [1] turned out to be 0.2 µM. Also, the “blood glucose decreasing rate (%) 3 hours later” value in the data set on male ob/ob mice (dose 1 mg/kg oral) is given as 16%.
Compound `CCCC(CCC)c1ccc(OCc2ccc(-c3csc(CN(CC(=O)O)Cc4ccccc4)n3)cc2)cc1` [Example 1-44] came in with a melting point of 138 to 142 °C. Moreover, the IC50 in data set [1] was found to be 0.22 µM. In the data set with male ob/ob mice (dose 1 mg/kg oral), the “blood glucose decreasing rate (%) 3 hours later” value came out at 20%.
`CN(Cc1ccc(C2CCCCC2)cc1)c1ccc(-c2csc(CN3CCC(C(=O)O)(c4ccccc4)CC3)n2)cc1` [Example 3-67]: the melting point fell in the range of 220 to 222 °C. Besides, the IC50 in data set [1] came out at 0.23 µM. For the same compound, the “blood glucose decreasing rate (%) 3 hours later” value in the data set on male ob/ob mice (dose 3 mg/kg oral) was found to be 20%.
On to `CCCC(CCC)c1ccc(COc2ccc(C)cc2-c2csc(CN(CC(=O)O)Cc3ccccn3)n2)cc1` [Example 3-21], for which the melting point fell in the range of 118 to 120 °C. Besides, in data set [1], the IC50 is 0.45 µM. For the same compound, in the data set on male ob/ob mice (dose 1 mg/kg oral), the “blood glucose decreasing rate (%) 3 hours later” value was 27%.
Taken in the same sequence, the figures for `CCCC(CCC)c1ccc(CN(C)c2ccc(-c3csc(CN(CC(=O)O)Cc4ccccn4)n3)cc2)cc1` [Example 3-53] were 117 to 120 °C, 0.28 µM and 20%.
